Results from US6794396B2, “Substituted pyridines useful for inhibiting cholesteryl ester transfer protein activity” (Pharmacia Corporation, priority 1998, dated 2004).

What was measured:
CETP = experiment: Chronic inhibition of CETP activity in vivo: Alzet pump infusion, serum LDL/HDL cholesterol profiles by FPLC; parameters: species or system golden Syrian hamster
Excerpt: Chronic inhibition of CETP can be achieved by administration of Dimethyl 5,5′-dithiobis[2-difluoromethyl)-4-(2-methylpropyl)-6-(trifluoromethyl)-3-pyridinecarboxylate] (Compound 181) to hamsters using Alzet pump delivery of Compound 181 into the jugular veins of hamsters. Inhibition of CETP should lead to an increase in HDL cholesterol with a concomitant decrease in LDL cholesterol. This can be determined by filtering serum obtained at different time intervals after initiation of inhibitor infusion and quantitating the amount of cholesterol in the LDL and HDL peaks, respectively. In addition the activity of CETP in the serum can be assessed in an ex vivo CETP activity assay.
Male golden Syrian hamsters were maintained on a diet of normal rodent chow enriched with 0.24% cholesterol for at least 2 weeks prior to study. On Day 1, the hamsters were anesthetized with pentobarbital. An indwelling catheter was inserted into the jugular vein and exteriorized onto the back of the neck. The hamsters received […] of Compound 181 (38.5 mg/kg) in a 2% ethanol:98% PEG400 vehicle, or the 2% ethanol:98% PEG400 vehicle alone. An Alzet pump was then attached to the jugular catheter which delivered a steady infusion of 24 μl/day for a dose of 1.3 mg/day(9.2 mg/kg/day). The hamsters received the vehicle (2% ETOH:98% PEG400) or Compound 181 for 8 days. The hamsters were maintained for 12 days. Blood samples were taken on day 1 (pre-bleed) at the time of surgery, and on days 5, 7, 8 and 12. Fast Protein Liquid Chromatography (FPLC) on tandem Superose 6 columns of pooled hamster serum was performed to obtain cholesterol profiles for the two experimental groups.
Serum cholesterol profiles were determined on pooled sera from each group. Total serum cholesterol and CETP activity were determined on individual serum samples. In hamsters administered Compound 181 chronically, there was a 30% reduction and 26% increase in LDL cholesterol and HDL cholesterol concentrations, respectively, compared to the vehicle group at Day 5. The decrease in LDL and increase in HDL persisted until Day 8 when the Alzet pump was exhausted. […] Therefore, it would appear that for every percent reduction in CETP activity determined by the ex vivo assay, there was a 2-3% decrease in LDL cholesterol or increase in HDL cholesterol concentrations.

[1] = target: T1, CETP in human plasma or serum pool (Homo sapiens, UniProt P11597); experiment: Whole serum CETP activity assay (tritiated cholesterol ester); assay type: biochemical; settings: 4 hours at 37° C.
T1 construct: from tissue; host or cells: pooled human EDTA plasma or serum from healthy volunteers
T1 sequence (P11597 18-493): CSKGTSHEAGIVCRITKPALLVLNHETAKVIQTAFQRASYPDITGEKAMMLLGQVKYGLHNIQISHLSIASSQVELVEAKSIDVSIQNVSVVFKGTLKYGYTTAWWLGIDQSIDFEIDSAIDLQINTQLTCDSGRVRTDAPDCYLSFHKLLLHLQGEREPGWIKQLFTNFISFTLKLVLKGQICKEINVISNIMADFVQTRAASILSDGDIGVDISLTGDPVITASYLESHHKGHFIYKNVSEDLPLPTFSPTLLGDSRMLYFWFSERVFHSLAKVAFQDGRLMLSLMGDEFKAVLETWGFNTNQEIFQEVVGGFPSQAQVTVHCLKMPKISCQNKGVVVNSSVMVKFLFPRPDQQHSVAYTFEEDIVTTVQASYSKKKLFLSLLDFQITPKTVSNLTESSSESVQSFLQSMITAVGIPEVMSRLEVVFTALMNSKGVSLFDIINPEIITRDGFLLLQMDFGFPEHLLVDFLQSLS
Description: Blood was obtained from healthy volunteers recruited from the personnel of Monsanto Company, Saint Louis, Mo. Blood was either collected in tubes containing EDTA (EDTA plasma pool) or in tubes without EDTA (spun to form the serum pool). The EDTA human plasma pool or human serum pool, previously stored at −20° C., was thawed at room temperature, and centrifuged for 5 minutes to remove any particulate matter. Tritiated HDL, radiolabeled in the cholesteryl ester moiety ([^3H]CE-HDL) as described by Morton and Zilversmit (J. Biol. Chem., 256, 11992-95 (1981) which is incorporated by reference herein), was added to the plasma or serum to a final concentration of (25 μg/ml cholesterol).
Inhibitor compounds were added to the plasma or serum as follows: Equal volumes of the plasma or serum containing the [^3H]CE-HDL (396 μl) were pipetted into micro tubes (Titertube®, Bio-Rad Laboratories, Hercules, Calif.). Compounds, usually dissolved as 20-50 mM stock solutions in DMSO, were serially diluted in DMSO (or an alternative solvent in some cases, such as dimethylformamide or ethanol). Four μl of each of the serial dilutions of inhibitor compounds or DMSO alone were then added to each of the plasma or serum tubes. The tubes were immediately mixed. Triplicate aliquots (100 μl) from each plasma or serum tube were then transferred to wells of 96-well round-bottomed polystyrene microtiter plates (Corning, Corning, N.Y.). Plates were sealed with plastic film and incubated at 37° C. for 4 hours.
Test wells contained plasma or serum with dilutions of inhibitor compounds. Control wells contained plasma or serum with DMSO alone. Blank wells contained plasma or serum with DMSO alone that were left in the micro tubes at 4° C. for the 4 hour incubation and were added to the microtiter wells at the end of the incubation period. VLDL and LDL were precipitated by the addition of 10 μl of precipitating reagent (1% (w/v) Dextran Sulfate (Dextralip50)/0.5M magnesium chloride, pH 7.4) to all wells. The wells were mixed on a plate mixer and then incubated at ambient temperature for 10 min. The plates were then centrifuged at 1000×g for 30 mins at 10° C. The supernatants (50 μl) from each well were then transferred to Picoplate™ 96 plate wells (Packard, Meriden, Conn.) containing […] Microscint™-40 (Packard, Meriden, Conn.). The plates were heat-sealed (TopSeal™-P, Packard, Meriden, Conn.) according to the manufacturers directions and mixed for 30 min.
Radioactivity was measured on a microplate scintillation counter (TopCount, Packard, Meriden, Conn.). […] The maximum percent transfer (in the control wells) was determined using the following equation: [formula]
The percent of control transfer determined in the wells containing inhibitor compounds was determined as follows: [formula]
IC50 values were then calculated from plots of % control versus concentration of inhibitor compound.

[2] = Day 1 (pre-bleed), pooled serum
[3] = Day 12, after pump exhausted at Day 8, pooled serum

## COC(=O)c1c(C(F)F)nc(C(F)(F)F)c(SSc2c(C(F)(F)F)nc(C(F)F)c(C(=O)OC)c2CC(C)C)c1CC(C)C [Compound 181, Dimethyl 5,5′-Dithiobis[2-(difluoromethyl)-4-(2-methylpropyl)-6-(trifluoromethyl)-3-pyridinecarboxylate]]
CETP; [2]
  HDL cholesterol concentration, % of cholesterol concentration in vehicle group: 105%
  LDL cholesterol concentration, % of cholesterol concentration in vehicle group: 111%
CETP; Day 5
  increase in HDL cholesterol concentration compared to the vehicle group: 26%
  reduction in LDL cholesterol concentration compared to the vehicle group: 30%
CETP; [3]
  HDL cholesterol concentration, % of cholesterol concentration in vehicle group: 114%
  LDL cholesterol concentration, % of cholesterol concentration in vehicle group: 90%
[1]
  IC50 whole serum CETP activity: 16 µM
